From US8937078B2, “Quinazolinones as prolyl hydroxylase inhibitors” (Janssen Pharmaceutica NV, priority 2009, dated 2015)

How the values were obtained:
[1] = biological target: T1, human PHD2 (PHD2181-417) (Homo sapiens, UniProt Q9GZT9); assay: PHD enzymatic assay ([14C]-succinic acid production); format: biochemical; settings: PHD2181-417, HIF-1α peptide 10 μM, average of results; read-out: Enzyme pIC50 (converted)
T1 construct: Smt (SUMO) tag (cleaved yes); made in house; host or cells: E. coli BL21 (pBAD vector)
T1 sequence (Q9GZT9 181-417): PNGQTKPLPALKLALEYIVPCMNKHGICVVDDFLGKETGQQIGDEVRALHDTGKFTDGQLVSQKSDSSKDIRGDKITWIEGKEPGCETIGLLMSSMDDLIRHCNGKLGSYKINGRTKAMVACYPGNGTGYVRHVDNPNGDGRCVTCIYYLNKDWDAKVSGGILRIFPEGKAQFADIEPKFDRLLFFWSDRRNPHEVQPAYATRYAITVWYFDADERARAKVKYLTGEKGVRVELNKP
Method in brief: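 Activity measured as [14C]-succinic acid formed from [5-14C]-2-oxoglutarate over 10 minutes, with peptide substrate at 10 μM, in Tris-HCl pH 7.5 buffer containing catalase, DTT and ascorbate. Unreacted oxoglutarate removed by DNP derivatisation; supernatant beta-counted.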

[2] = tested on: Hep-3B cells; assay: Cellular assay: erythropoietin secretion in Hep-3B cells; format: cell-based, human; settings: Homo sapiens, Hep3B, 100 μM compound, 24 hours, percent of EPO secretion relative to assay control compound 7-[(4-Chloro-phenyl)-(5-methyl-isoxazol-3-ylamino)-methyl]-quinolin-8-ol, read-out: Cellular % EPO Stimulation
Method in brief: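 Hep-3B cells in DMEM with 10% FBS, treated 24 h after plating with compounds at 100 μM final for a further 24 h. Secreted EPO in supernatant measured by MSD electrochemiluminescence sandwich immunoassay with anti-EPO detection antibody.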

Row | Compound | IC50 [1] | Emax at 100 µM [2]
1 | CCOc1ccc2c(=O)[nH]c(-n3cc(C(=O)O)cn3)nc2c1 [Example 152, 1-(7-Ethoxy-4-oxo-3,4-dihydro-quinazolin-2-yl)-1H-pyrazole-4-carboxylic acid] | 158 nM | 38%
2 | O=C(O)c1cnn(-c2nc3cc(O)ccc3c(=O)[nH]2)c1 [Example 154, 1-(7-Hydroxy-4-oxo-3,4-dihydro-quinazolin-2-yl)-1H-pyrazole-4-carboxylic acid] | 50.1 nM | 12%
3 | CSc1ccc2nc(-n3cc(C(=O)O)cn3)[nH]c(=O)c2c1 [Example 155, 1-(6-Methylsulfanyl-4-oxo-3,4-dihydro-quinazolin-2-yl)-1H-pyrazole-4-carboxylic acid] | 31.6 nM | 40%
4 | O=C(O)c1cnn(-c2nc3ccc(SC(F)(F)F)cc3c(=O)[nH]2)c1 [Example 156, 1-(4-Oxo-6-trifluoromethylsulfanyl-3,4-dihydro-quinazolin-2-yl)-1H-pyrazole-4-carboxylic acid] | 31.6 nM | 19%
5 | O=C(O)c1cnn(-c2nc3ccc(S(=O)(=O)N4CCCC4)cc3c(=O)[nH]2)c1 [Example 161, 1-[4-Oxo-6-(pyrrolidine-1-sulfonyl)-3,4-dihydro-quinazolin-2-yl]-1H-pyrazole-4-carboxylic acid] | 39.8 nM | 17%
6 | O=C(O)c1cnn(-c2nc3ccc(C(=O)N4CCCC4)cc3c(=O)[nH]2)c1 [Example 162, 1-[4-Oxo-6-(pyrrolidine-1-carbonyl)-3,4-dihydro-quinazolin-2-yl]-1H-pyrazole-4-carboxylic acid] | 31.6 nM | 15%
7 | O=C(O)c1cnn(-c2nc3ccc(NC(=O)c4ccccc4)cc3c(=O)[nH]2)c1 [Example 165, 1-(6-Benzoylamino-4-oxo-3,4-dihydro-quinazolin-2-yl)-1H-pyrazole-4-carboxylic acid] | 25.1 nM | 19%
8 | Cc1cccc(C)c1C(=O)Nc1ccc2nc(-n3cc(C(=O)O)cn3)[nH]c(=O)c2c1 [Example 166, 1-[6-(2,6-Dimethyl-benzoylamino)-4-oxo-3,4-dihydro-quinazolin-2-yl]-1H-pyrazole-4-carboxylic acid] | 31.6 nM | 11%
9 | CC(=O)Nc1ccc2nc(-n3cc(C(=O)O)cn3)[nH]c(=O)c2c1 [Example 167, 1-(6-Acetylamino-4-oxo-3,4-dihydro-quinazolin-2-yl)-1H-pyrazole-4-carboxylic acid] | 31.6 nM | 26%
10 | O=C(Nc1ccccc1)Nc1ccc2nc(-n3cc(C(=O)O)cn3)[nH]c(=O)c2c1 [Example 168, 1-[4-Oxo-6-(3-phenyl-ureido)-3,4-dihydro-quinazolin-2-yl]-1H-pyrazole-4-carboxylic acid] | 31.6 nM | 4%
11 | O=C(O)c1cnn(-c2nc3ccc(NS(=O)(=O)c4ccccc4)cc3c(=O)[nH]2)c1 [Example 169, 1-(6-Benzenesulfonylamino-4-oxo-3,4-dihydro-quinazolin-2-yl)-1H-pyrazole-4-carboxylic acid] | 25.1 nM | 34%
12 | CS(=O)(=O)Nc1ccc2nc(-n3cc(C(=O)O)cn3)[nH]c(=O)c2c1 [Example 170, 1-(6-Methanesulfonylamino-4-oxo-3,4-dihydro-quinazolin-2-yl)-1H-pyrazole-4-carboxylic acid] | 31.6 nM | 15%
13 | O=C(O)c1cnn(-c2nc3ccc(NCc4ccccc4Cl)cc3c(=O)[nH]2)c1 [Example 174, 1-[6-(2-Chloro-benzylamino)-4-oxo-3,4-dihydro-quinazolin-2-yl]-1H-pyrazole-4-carboxylic acid] | 20 nM | 24%
14 | Cc1cccc(C)c1CNc1ccc2nc(-n3cc(C(=O)O)cn3)[nH]c(=O)c2c1 [Example 175, 1-[6-(2,6-Dimethyl-benzylamino)-4-oxo-3,4-dihydro-quinazolin-2-yl]-1H-pyrazole-4-carboxylic acid] | 31.6 nM | 97%
15 | N#Cc1ccccc1CNc1ccc2nc(-n3cc(C(=O)O)cn3)[nH]c(=O)c2c1 [Example 177, 1-[6-(2-Cyano-benzylamino)-4-oxo-3,4-dihydro-quinazolin-2-yl]-1H-pyrazole-4-carboxylic acid] | 50.1 nM | 13%
16 | N#Cc1cccc(CNc2ccc3nc(-n4cc(C(=O)O)cn4)[nH]c(=O)c3c2)c1 [Example 178, 1-[6-(3-Cyano-benzylamino)-4-oxo-3,4-dihydro-quinazolin-2-yl]-1H-pyrazole-4-carboxylic acid] | 20 nM | 12%
17 | NC(=O)c1cccc(CNc2ccc3nc(-n4cc(C(=O)O)cn4)[nH]c(=O)c3c2)c1 [Example 179, 1-[6-(3-Carbamoyl-benzylamino)-4-oxo-3,4-dihydro-quinazolin-2-yl]-1H-pyrazole-4-carboxylic acid] | 25.1 nM | 12%
18 | O=C(O)c1cnn(-c2nc3ccc(NCc4c(Cl)cccc4Cl)cc3c(=O)[nH]2)c1 [Example 181, 1-[6-(2,6-Dichloro-benzylamino)-4-oxo-3,4-dihydro-quinazolin-2-yl]-1H-pyrazole-4-carboxylic acid] | 25.1 nM | 118%
19 | O=C(O)c1cnn(-c2nc3ccc(NCc4cccc(Cl)c4)cc3c(=O)[nH]2)c1 [Example 182, 1-[6-(3-Chloro-benzylamino)-4-oxo-3,4-dihydro-quinazolin-2-yl]-1H-pyrazole-4-carboxylic acid] | 25.1 nM | 26%
20 | O=C(O)c1cnn(-c2nc3cc(-c4ccccc4)ccc3c(=O)[nH]2)c1 [Example 184, 1-(4-Oxo-7-phenyl-3,4-dihydro-quinazolin-2-yl)-1H-pyrazole-4-carboxylic acid] | 79.4 nM | 12%

More lines, main results first:

Row | IC50 [1] | Compound | Emax at 100 µM [2]
21 | 39.8 nM | O=C(O)c1cnn(-c2nc3ccc(Cl)cc3c(=O)[nH]2)c1 [Example 153, 1-(6-Chloro-4-oxo-3,4-dihydro-quinazolin-2-yl)-1H-pyrazole-4-carboxylic acid] | 22%
22 | 31.6 nM | CS(=O)(=O)c1ccc2nc(-n3cc(C(=O)O)cn3)[nH]c(=O)c2c1 [Example 157, 1-(6-Methanesulfonyl-4-oxo-3,4-dihydro-quinazolin-2-yl)-1H-pyrazole-4-carboxylic acid] | 17%
23 | 39.8 nM | CSc1cc2c(=O)[nH]c(-n3cc(C(=O)O)cn3)nc2cc1Cl [Example 158, 1-(7-Chloro-6-methylsulfanyl-4-oxo-3,4-dihydro-quinazolin-2-yl)-1H-pyrazole-4-carboxylic acid] | 15%
24 | 25.1 nM | O=C(O)c1cnn(-c2nc3cc(Cl)c(SC(F)(F)F)cc3c(=O)[nH]2)c1 [Example 159, 1-(7-Chloro-4-oxo-6-trifluoromethylsulfanyl-3,4-dihydro-quinazolin-2-yl)-1H-pyrazole-4-carboxylic acid] | 16%
25 | 39.8 nM | O=C(O)c1cnn(-c2nc3cc(Cl)c([S+]([O-])C(F)(F)F)cc3c(=O)[nH]2)c1 (stereo not drawn) [Example 160, 1-(7-Chloro-4-oxo-6-trifluoromethanesulfinyl-3,4-dihydro-quinazolin-2-yl)-1H-pyrazole-4-carboxylic acid] | 13%
26 | 39.8 nM | Cc1cccc(C)c1NC(=O)c1ccc2nc(-n3cc(C(=O)O)cn3)[nH]c(=O)c2c1 [Example 163, 1-[6-(2,6-Dimethyl-phenylcarbamoyl)-4-oxo-3,4-dihydro-quinazolin-2-yl]-1H-pyrazole-4-carboxylic acid] | 14%
27 | 25.1 nM | O=C(O)c1cnn(-c2nc3ccc([N+](=O)[O-])cc3c(=O)[nH]2)c1 [Example 164, 1-(6-Nitro-4-oxo-3,4-dihydro-quinazolin-2-yl)-1H-pyrazole-4-carboxylic acid] | 17%
28 | 25.1 nM | O=C(O)c1cnn(-c2nc3ccc(NCc4ccccc4)cc3c(=O)[nH]2)c1 [Example 171, 1-(6-Benzylamino-4-oxo-3,4-dihydro-quinazolin-2-yl)-1H-pyrazole-4-carboxylic acid] | 34%
29 | 25.1 nM | CCNc1ccc2nc(-n3cc(C(=O)O)cn3)[nH]c(=O)c2c1 [Example 172, 1-(6-Ethylamino-4-oxo-3,4-dihydro-quinazolin-2-yl)-1H-pyrazole-4-carboxylic acid] | 20%
30 | 20 nM | Cc1ccccc1CNc1ccc2nc(-n3cc(C(=O)O)cn3)[nH]c(=O)c2c1 [Example 173, 1-[6-(2-Methyl-benzylamino)-4-oxo-3,4-dihydro-quinazolin-2-yl]-1H-pyrazole-4-carboxylic acid] | 101%
31 | 39.8 nM | O=C(O)c1cnn(-c2nc3ccc(NCc4c(F)cccc4F)cc3c(=O)[nH]2)c1 [Example 176, 1-[6-(2,6-Difluoro-benzylamino)-4-oxo-3,4-dihydro-quinazolin-2-yl]-1H-pyrazole-4-carboxylic acid] | 26%
32 | 63.1 nM | Nc1ccc2nc(-n3cc(C(=O)O)cn3)[nH]c(=O)c2c1 [Example 180, 1-[6-amino-4-oxo-3,4-dihydro-quinazolin-2-yl]-1H-pyrazole-4-carboxylic acid] | 8%
33 | 15.8 nM | Cc1ccc(CNc2ccc3nc(-n4cc(C(=O)O)cn4)[nH]c(=O)c3c2)cc1 [Example 183, 1-[6-(4-methyl-benzylamino)-4-oxo-3,4-dihydro-quinazolin-2-yl]-1H-pyrazole-4-carboxylic acid] | 89%
